# Patent publication US20230022157A1 (Achillion Pharmaceuticals, Inc., priority 2018, published 2023)
# Target: T1, Human Factor D (Homo sapiens, UniProt P00746)
# T1 construct: purified from human serum; purchased Complement Technology, Inc; host or cells: human serum (natural protein, not recombinant)
# Assay: Human Factor D Assay
# Format: biochemical
# Conditions: Human Factor D 80 nM, substrate Z-L-Lys-SBzl; Table 2; read-out: IC50 (Stars)
# Procedure, shortened: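 Serum-purified human factor D (80 nM final) preincubated 5 min at room temperature with test compound in 50 mM Tris, 1M NaCl, pH 7.5. Z-L-Lys-SBzl substrate and DTNB then added, each at 100 μM final. IC50 from nonlinear regression of reaction rate against compound concentration.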
# T1 sequence (P00746 26-253): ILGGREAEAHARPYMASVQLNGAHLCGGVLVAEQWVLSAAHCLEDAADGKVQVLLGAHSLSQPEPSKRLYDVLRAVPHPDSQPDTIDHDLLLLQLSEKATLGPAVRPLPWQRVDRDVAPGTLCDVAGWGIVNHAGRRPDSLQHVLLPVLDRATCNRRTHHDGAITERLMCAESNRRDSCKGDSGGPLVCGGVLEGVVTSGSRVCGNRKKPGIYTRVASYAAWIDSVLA
row,Structure (SMILES),IC50 [nM]
1,"CC(=O)c1cn(CC(=O)N2[C@H](C(=O)Nc3nc(C(F)(F)F)ccc3C)C[C@@]3(C)C[C@@H]23)c2c(C)nc(-c3cnc(C)nc3)cc12 [Compound 200, (1R,3S,5R)-2-{2-[3-acetyl-7-methyl-5-(2-methylpyrimidin-5-yl)pyrrolo[2,3-c]pyridin-1-yl]acetyl}-5-methyl-N-[3-methyl-6-(trifluoromethyl)pyridin-2-yl]-2-azabicyclo[3.1.0]hexane-3-carboxamide]",< 1000
2,"COc1ncc(-c2cc3c(C(C)=O)cn(CC(=O)N4[C@H](C(=O)Nc5nc(C(F)(F)F)ccc5C)C[C@@]5(C)C[C@@H]45)c3c(C)n2)cn1 [Compound 201, (1R,3S,5R)-2-(2-(3-acetyl-5-(2-methoxypyrimidin-5-yl)-7-methyl-1H-pyrrolo[2,3-c]pyridin-1-yl)acetyl)-5-methyl-N-(3-methyl-6-(trifluoromethyl)pyridin-2-yl)-2-azabicyclo[3.1.0]hexane-3-carboxamide]",< 1000
3,"CC(=O)c1cn(CC(=O)N2[C@H](C(=O)Nc3nc(Br)ccc3C)C[C@@]3(C)C[C@@H]23)c2ccc(-c3cnc4cc(C)nn4c3)cc12 [Compound 202, (1R,3S,5R)-2-(2-(3-acetyl-5-(2-methylpyrazolo[1,5-a]pyrimidin-6-yl)-1H-indol-1-yl)acetyl)-N-(6-bromo-3-methylpyridin-2-yl)-5-methyl-2-azabicyclo[3.1.0]hexane-3-carboxamide]",< 1000
4,"CC(=O)c1cn(CC(=O)N2[C@H](C(=O)Nc3nc(C(F)(F)F)ccc3C)C[C@@]3(C)C[C@@H]23)c2ccc(-c3cnc4cc(C)nn4c3)cc12 [Compound 203, (1R,3S,5R)-2-(2-(3-acetyl-5-(2-methylpyrazolo[1,5-a]pyrimidin-6-yl)-1H-indol-1-yl)acetyl)-5-methyl-N-(3-methyl-6-(trifluoromethyl)pyridin-2-yl)-2-azabicyclo[3.1.0]hexane-3-carboxamide]",< 1000
5,"CC(=O)c1nn(CC(=O)N2[C@H](C(=O)Nc3nc(Br)c(F)cc3C)C[C@@]3(C)C[C@@H]23)c2c(C)cc(-c3cnc(C(C)O)cn3)cc12 (stereo partly drawn) [Compound 204, (1R,3S,5R)-2-(2-(3-acetyl-5-(5-(1-hydroxyethyl)pyrazin-2-yl)-7-methyl-1H-indazol-1-yl)acetyl)-N-(6-bromo-5-fluoro-3-methylpyridin-2-yl)-5-methyl-2-azabicyclo[3.1.0]hexane-3-carboxamide]",< 1000
6,"CC(=O)c1cn(CC(=O)N2[C@H](C(=O)Nc3nc(OC(F)(F)F)ccc3C)C[C@@]3(C)C[C@@H]23)c2c(C)cc(-c3cnc4cc(C)nn4c3)cc12 [Compound 206, (1R,3S,5R)-2-(2-(3-acetyl-7-methyl-5-(2-methylpyrazolo[1,5-a]pyrimidin-6-yl)-1H-indol-1-yl)acetyl)-5-methyl-N-(3-methyl-6-(trifluoromethoxy)pyridin-2-yl)-2-azabicyclo[3.1.0]hexane-3-carboxamide]",< 1000
7,"CC(=O)c1cn(CC(=O)N2[C@H](C(=O)Nc3nc(C(F)(F)F)ccc3C)C[C@@]3(C)C[C@@H]23)c2c(CO)nc(-c3cnc(C)nc3)cc12 [Compound 207, (1R,3S,5R)-2-(2-(3-acetyl-7-(hydroxymethyl)-5-(2-methylpyrimidin-5-yl)-1H-pyrrolo[2,3-c]pyridin-1-yl)acetyl)-5-methyl-N-(3-methyl-6-(trifluoromethyl)pyridin-2-yl)-2-azabicyclo[3.1.0]hexane-3-carboxamide]",< 1000
8,"CC(=O)c1nn(CC(=O)N2[C@H](C(=O)Nc3nc(Br)ccc3C)C[C@@]3(C)C[C@@H]23)c2c(C)cc(-c3cnc(CF)nc3)cc12 [Compound 208, (1R,3S,5R)-2-(2-(3-acetyl-5-(2-(fluoromethyl)pyrimidin-5-yl)-7-methyl-1H-indazol-1-yl)acetyl)-N-(6-bromo-3-methylpyridin-2-yl)-5-methyl-2-azabicyclo[3.1.0]hexane-3-carboxamide]",< 1000
9,"CC(=O)c1cn(CC(=O)N2[C@H](C(=O)Nc3nc(Br)c(F)cc3C)C[C@@]3(C)C[C@@H]23)c2c(C)cc(-c3cnc4cc(C)nn4c3)cc12 [Compound 209, (1R,3S,5R)-2-(2-(3-acetyl-7-methyl-5-(2-methylpyrazolo[1,5-a]pyrimidin-6-yl)-1H-indol-1-yl)acetyl)-N-(6-bromo-5-fluoro-3-methylpyridin-2-yl)-5-methyl-2-azabicyclo[3.1.0]hexane-3-carboxamide]",< 1000
10,"CC(=O)c1cn(CC(=O)N2[C@H](C(=O)Nc3cncc(Br)n3)C[C@@]3(C)C[C@@H]23)c2c(C)cc(-c3cnc4cc(C)nn4c3)cc12 [Compound 210, (1R,3S,5R)-2-(2-(3-acetyl-7-methyl-5-(2-methylpyrazolo[1,5-a]pyrimidin-6-yl)-1H-indol-1-yl)acetyl)-N-(6-bromopyrazin-2-yl)-5-methyl-2-azabicyclo[3.1.0]hexane-3-carboxamide]",< 1000
11,"CC(=O)c1cn(CC(=O)N2[C@H](C(=O)Nc3nc(Br)c(F)cc3C)C[C@@]3(C)C[C@@H]23)c2ccc(-c3cnc4cc(C)nn4c3)cc12 [Compound 211, (1R,3S,5R)-2-(2-(3-acetyl-5-(2-methylpyrazolo[1,5-a]pyrimidin-6-yl)-1H-indol-1-yl)acetyl)-N-(6-bromo-5-fluoro-3-methylpyridin-2-yl)-5-methyl-2-azabicyclo[3.1.0]hexane-3-carboxamide]",< 1000
12,"CC(=O)c1nn(CC(=O)N2[C@H](C(=O)Nc3nc(C(F)(F)F)ccc3C)C[C@@]3(C)C[C@@H]23)c2ccc(-c3cnc4cc(C)nn4c3)cc12 [Compound 212, (1R,3S,5R)-2-(2-(3-acetyl-5-(2-methylpyrazolo[1,5-a]pyrimidin-6-yl)-1H-indazol-1-yl)acetyl)-5-methyl-N-(3-methyl-6-(trifluoromethyl)pyridin-2-yl)-2-azabicyclo[3.1.0]hexane-3-carboxamide]",< 1000
13,"CC(=O)c1nn(CC(=O)N2[C@H]3CC[C@H](C3)[C@H]2C(=O)Nc2nc(C(F)(F)F)ccc2C)c2ccc(-c3cnc4cc(C)nn4c3)cc12 [Compound 213, (1S,3S,4R)-2-(2-(3-acetyl-5-(2-methylpyrazolo[1,5-a]pyrimidin-6-yl)-1H-indazol-1-yl)acetyl)-N-(3-methyl-6-(trifluoromethyl)pyridin-2-yl)-2-azabicyclo[2.2.1]heptane-3-carboxamide]",< 1000
14,"COCc1ccc(Br)nc1NC(=O)[C@@H]1C[C@@]2(C)C[C@H]2N1C(=O)Cn1cc(C(C)=O)c2cc(-c3cnc(C)nc3)cc(C)c21 [Compound 214, (1R,3S,5R)-2-(2-(3-acetyl-7-methyl-5-(2-methyl-pyrimidin-5-yl)-1H-indol-1-yl)acetyl)-N-(6-bromo-3-(methoxymethyl)pyridin-2-yl)-5-methyl-2-azabicyclo[3.1.0]hexane-3-carboxamide]",< 1000
15,"COCc1ccc(Br)nc1NC(=O)[C@@H]1C[C@@]2(C)C[C@H]2N1C(=O)Cn1cc(C(C)=O)c2cc(-c3cnc4cc(C)nn4c3)cc(C)c21 [Compound 215, (1R,3S,5R)-2-(2-(3-acetyl-7-methyl-5-(2-methylpyrazolo[1,5-a]pyrimidin-6-yl)-1H-indol-1-yl)acetyl)-N-(6-bromo-3-(methoxymethyl)pyridin-2-yl)-5-methyl-2-azabicyclo[3.1.0]hexane-3-carboxamide]",< 1000
16,"CC(=O)c1cn(CC(=O)N2[C@H](C(=O)Nc3nc(Br)ccc3C)C[C@@]3(C)C[C@@H]23)c2c(C)cc(-c3cnc(C(C)F)nc3)cc12 (stereo partly drawn) [Compound 216, (1R,3S,5R)-2-(2-(3-acetyl-5-(2-(1-fluoroethyl)pyrimidin-5-yl)-7-methyl-1H-indol-1-yl)acetyl)-N-(6-bromo-3-methylpyridin-2-yl)-5-methyl-2-azabicyclo[3.1.0]hexane-3-carboxamide]",< 1000
17,"CC(=O)c1cn(CC(=O)N2[C@H](C(=O)Nc3nc(Br)c(F)cc3C)C[C@@]3(C)C[C@@H]23)c2c(C)cc(-c3cnc(CF)nc3)cc12 [Compound 217, (1R,3S,5R)-2-(2-(3-acetyl-5-(2-(fluoromethyl)pyrimidin-5-yl)-7-methyl-1H-indol-1-yl)acetyl)-N-(6-bromo-5-fluoro-3-methylpyridin-2-yl)-5-methyl-2-azabicyclo[3.1.0]hexane-3-carboxamide]",< 1000
18,"CC(=O)c1cn(CC(=O)N2[C@H](C(=O)Nc3cncc(Br)n3)C[C@@]3(C)C[C@@H]23)c2c(C)cc(-c3cnc(CF)nc3)cc12 [Compound 218, (1R,3S,5R)-2-(2-(3-acetyl-5-(2-(fluoromethyl)pyrimidin-5-yl)-7-methyl-1H-indol-1-yl)acetyl)-N-(6-bromopyrazin-2-yl)-5-methyl-2-azabicyclo[3.1.0]hexane-3-carboxamide]",1000 to 10000
19,"CC(=O)c1cn(CC(=O)N2[C@H](C(=O)Nc3nc(C(F)(F)F)ccc3C)C[C@@]3(C)C[C@@H]23)c2c(C)cc(-c3cnc(CF)nc3)cc12 [Compound 220, (1R,3S,5R)-2-(2-(3-acetyl-5-(2-(fluoromethyl)pyrimidin-5-yl)-7-methyl-1H-indol-1-yl)acetyl)-5-methyl-N-(3-methyl-6-(trifluoromethyl)pyridin-2-yl)-2-azabicyclo[3.1.0]hexane-3-carboxamide]",< 1000
20,"CC(=O)c1cn(CC(=O)N2[C@H](C(=O)Nc3nc(Br)ccc3C)C[C@@]3(C)C[C@@H]23)c2c(C)cc(-c3cnc(CF)nc3)cc12 [Compound 221, (1R,3S,5R)-2-(2-(3-acetyl-5-(2-(fluoromethyl)pyrimidin-5-yl)-7-methyl-1H-indol-1-yl)acetyl)-N-(6-bromo-3-methylpyridin-2-yl)-5-methyl-2-azabicyclo[3.1.0]hexane-3-carboxamide]",< 1000
21,"CC(=O)c1cn(CC(=O)N2[C@H](C(=O)Nc3nc(C(F)(F)F)ccc3C)C[C@@]3(C)C[C@@H]23)c2c(C)cc(-c3cnc(C)c(C)n3)cc12 [Compound 222, (1R,3S,5R)-2-(2-(3-acetyl-5-(5,6-dimethylpyrazin-2-yl)-7-methyl-1H-indol-1-yl)acetyl)-5-methyl-N-(3-methyl-6-(trifluoromethyl)pyridin-2-yl)-2-azabicyclo[3.1.0]hexane-3-carboxamide]",< 1000
